Results published in patent publication US20030022253A1, “Method for identifying, isolating and producing neuroactive binding agents and binding agents derived thereby” (Nyxis Neurotherapies, Inc., priority 2001, published 2003).
Where two headings read alike, the source gives them in different places. One block for each compound: values may come before it.

Assays:
[1] = molecular target: NMDA receptor-ion channel complex; assay: [3H]TCP binding assay on washed hippocampal membranes; parameters: species or system rat
Description: (§1) Tissue Preparation. Crude synaptic membranes were prepared from rat Hippocampi or from rat forebrains (male Sprague-Dawley rats) and washed extensively to remove endogenous amino acids, as previously described by Ransom and Stec ((1988) Brain Res. 444, 25-32). […] Membranes were then pelleted by centrifugation at 48,000 g for 20 min. This step was repeated twice and the homogenate was stored at −70′ in the same buffer. Before each use, homogenates were thawed at room temperature, pelleted, and washed four additional times. […] The final washed membranes were resuspended at concentrations of 2-3 mg/ml in either 5 mM Tris-HCl buffer or 5 mM Tris-acetate buffer.
(§2) TCP binding assay. Measurements of specific [^3H]TCP binding were performed as described previously (Haring R., Kloog Y., Harshak-Felixbrodt N., and Sokolovsky M. (1987) Biochem. Biophys. Res. Commun. 142, 501-510). Final reaction of mixtures consisted of 50-100 μg of membrane protein in 200 μl of 5 mM Tris-HCl buffer and contained either [^3H]TCP, or [^3H]TCP and the appropriate concentration of NMDA-receptor ligands or MAbs. Reactions were initiated by the addition of the membranes to the reaction mixtures. Unless otherwise indicated, binding assays were performed under nonequilibrium conditions at 25° C. for 1 hr. Nonspecific binding was determined in parallel samples containing 100 μM unlabeled PCP. Binding reactions were terminated by filtration on Whatman GF/B glass filters that had been pretreated with 0.1% polyethyleneimine for 1 hr. The dissociation of [^3H]TCP from its membrane-binding site was measured after equilibrating the receptors with 20 nM [^3H]TCP for 120 min. The dissociation reaction was initiated by the addition of 100 μM unlabeled PCP in the presence and absence of NMDA-receptor ligands or MAb. Reactions were terminated immediately (zero time) and after incubation for the additional periods of time indicated.

[2] = molecular target: T1, NMDA receptor-ion channel complex; assay: as above; parameters: species or system rat; settings: antagonist alone, no glutamate or glycine added; read-out: IC50, inhibition of [3H]TCP binding
T1 construct: other: antagonist alone, no glutamate or glycine added; other: combined addition, 50 μM of each
Description: as §1, §2

[3] = molecular target: T2, NMDA receptor-ion channel complex (Rattus norvegicus, UniProt P35439); assay: as above
T2 construct: other: in the presence of 25 μM of B6B21; other: agonist alone
Description: as §1, §2

[4] = molecular target: T3, glycine-binding site of the NMDA-receptor complex (Rattus norvegicus, UniProt P35439); assay: [3H]glycine binding assay; settings: Scatchard analysis, no antibody
T3 construct: Crude synaptic membranes were prepared from rat Hippocampi or from rat forebrains (male Sprague-Dawley rats); from tissue; host or cells: rat hippocampal or forebrain crude synaptic membranes (male Sprague-Dawley), Triton X-100 treated
Description: as §1

learning [5] = settings: rats, IV doses up to 2 mg/kg; cited from earlier work
learning [6] = settings: rats, IV doses up to 2 mg/kg; cited from earlier work; remark: listed apart in the source
NMDA receptor complex = molecular target: T4, NMDA receptor complex (Rattus norvegicus, UniProt P35439); assay: Modified glycine site-dependent [3H]MK-801 binding assay with 7-chlorokynurenic acid; settings: at 10^−6 M
T4 construct: Crude synaptic membranes were prepared using rat hippocampal tissue (male Sprague-Dawley rats); from tissue; host or cells: rat hippocampal crude synaptic membranes (male Sprague-Dawley)

T2 sequence (Q00959 23-1464, other chains not shown): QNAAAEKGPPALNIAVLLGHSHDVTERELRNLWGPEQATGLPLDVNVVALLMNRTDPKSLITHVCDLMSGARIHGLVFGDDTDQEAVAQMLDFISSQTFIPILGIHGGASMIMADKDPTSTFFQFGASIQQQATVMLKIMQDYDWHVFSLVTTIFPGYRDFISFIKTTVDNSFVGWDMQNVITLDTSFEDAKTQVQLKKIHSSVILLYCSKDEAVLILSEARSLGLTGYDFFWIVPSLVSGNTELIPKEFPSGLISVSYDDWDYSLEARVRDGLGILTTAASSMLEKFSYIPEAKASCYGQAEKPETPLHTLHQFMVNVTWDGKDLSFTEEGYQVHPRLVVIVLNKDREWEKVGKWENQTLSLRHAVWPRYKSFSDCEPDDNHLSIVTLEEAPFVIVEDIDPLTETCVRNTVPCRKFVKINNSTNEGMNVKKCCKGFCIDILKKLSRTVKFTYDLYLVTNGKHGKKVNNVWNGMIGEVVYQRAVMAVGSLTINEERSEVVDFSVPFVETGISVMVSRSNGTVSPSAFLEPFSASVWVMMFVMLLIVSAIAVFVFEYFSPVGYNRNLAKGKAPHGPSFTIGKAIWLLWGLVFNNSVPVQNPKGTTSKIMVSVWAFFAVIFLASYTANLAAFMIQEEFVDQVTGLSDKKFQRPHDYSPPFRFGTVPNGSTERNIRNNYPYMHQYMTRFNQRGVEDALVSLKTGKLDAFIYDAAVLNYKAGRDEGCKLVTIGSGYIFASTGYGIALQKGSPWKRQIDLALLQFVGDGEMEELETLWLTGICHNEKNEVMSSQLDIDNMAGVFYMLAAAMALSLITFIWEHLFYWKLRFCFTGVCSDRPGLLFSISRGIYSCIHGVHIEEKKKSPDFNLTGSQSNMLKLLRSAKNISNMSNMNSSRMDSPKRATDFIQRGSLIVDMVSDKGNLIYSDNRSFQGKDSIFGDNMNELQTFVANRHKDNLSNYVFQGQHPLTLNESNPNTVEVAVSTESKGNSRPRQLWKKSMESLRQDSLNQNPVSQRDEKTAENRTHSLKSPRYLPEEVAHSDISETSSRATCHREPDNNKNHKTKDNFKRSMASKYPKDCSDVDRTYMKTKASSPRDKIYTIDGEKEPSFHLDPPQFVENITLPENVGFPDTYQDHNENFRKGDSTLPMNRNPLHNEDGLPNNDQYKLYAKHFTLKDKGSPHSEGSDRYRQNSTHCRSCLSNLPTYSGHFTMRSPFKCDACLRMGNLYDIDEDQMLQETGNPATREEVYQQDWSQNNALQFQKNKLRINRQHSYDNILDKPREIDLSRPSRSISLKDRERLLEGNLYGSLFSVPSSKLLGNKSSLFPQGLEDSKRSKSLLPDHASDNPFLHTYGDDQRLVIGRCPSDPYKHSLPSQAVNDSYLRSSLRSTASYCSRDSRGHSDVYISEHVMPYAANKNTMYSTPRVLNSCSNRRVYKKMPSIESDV
T2 sequence (Q00960 27-1482, other chains not shown, further chain): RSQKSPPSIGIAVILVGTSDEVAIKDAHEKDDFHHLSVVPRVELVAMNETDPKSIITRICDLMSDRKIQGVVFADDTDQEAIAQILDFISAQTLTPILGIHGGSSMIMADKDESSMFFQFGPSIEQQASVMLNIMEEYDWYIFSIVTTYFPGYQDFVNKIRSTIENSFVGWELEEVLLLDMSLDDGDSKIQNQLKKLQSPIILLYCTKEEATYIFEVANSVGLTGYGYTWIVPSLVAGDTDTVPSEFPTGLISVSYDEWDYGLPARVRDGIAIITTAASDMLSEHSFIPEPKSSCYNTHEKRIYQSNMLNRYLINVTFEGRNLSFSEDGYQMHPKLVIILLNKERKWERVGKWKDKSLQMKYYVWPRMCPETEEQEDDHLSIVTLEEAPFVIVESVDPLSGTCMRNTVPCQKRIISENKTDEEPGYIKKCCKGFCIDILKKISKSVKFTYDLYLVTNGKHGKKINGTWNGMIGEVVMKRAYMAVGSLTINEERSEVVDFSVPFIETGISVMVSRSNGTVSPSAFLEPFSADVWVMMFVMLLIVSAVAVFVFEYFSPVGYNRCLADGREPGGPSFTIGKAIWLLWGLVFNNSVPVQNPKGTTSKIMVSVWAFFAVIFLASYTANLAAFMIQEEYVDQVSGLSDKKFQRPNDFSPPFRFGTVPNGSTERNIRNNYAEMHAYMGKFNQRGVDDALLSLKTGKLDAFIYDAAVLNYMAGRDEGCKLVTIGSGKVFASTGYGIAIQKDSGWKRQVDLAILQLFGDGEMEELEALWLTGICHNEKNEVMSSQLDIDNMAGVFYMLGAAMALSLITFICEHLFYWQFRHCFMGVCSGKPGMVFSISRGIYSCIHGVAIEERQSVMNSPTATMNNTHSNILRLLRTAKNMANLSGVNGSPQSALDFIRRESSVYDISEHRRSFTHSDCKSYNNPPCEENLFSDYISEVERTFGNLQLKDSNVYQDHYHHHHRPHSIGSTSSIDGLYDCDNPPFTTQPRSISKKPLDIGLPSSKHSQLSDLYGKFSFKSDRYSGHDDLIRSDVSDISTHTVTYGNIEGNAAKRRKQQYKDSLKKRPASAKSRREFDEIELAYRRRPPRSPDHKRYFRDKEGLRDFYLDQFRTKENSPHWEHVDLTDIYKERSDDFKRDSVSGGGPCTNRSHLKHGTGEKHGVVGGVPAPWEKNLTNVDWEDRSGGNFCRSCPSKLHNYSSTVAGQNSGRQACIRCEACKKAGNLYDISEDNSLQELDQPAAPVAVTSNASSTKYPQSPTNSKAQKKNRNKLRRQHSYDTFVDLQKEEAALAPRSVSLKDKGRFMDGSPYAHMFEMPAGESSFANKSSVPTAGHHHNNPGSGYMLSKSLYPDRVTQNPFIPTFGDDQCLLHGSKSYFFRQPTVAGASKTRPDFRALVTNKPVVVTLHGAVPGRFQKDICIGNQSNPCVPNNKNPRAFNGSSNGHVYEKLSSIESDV

Compound: O=C(O)c1cc(O)c2ccc(Cl)cc2n1 [7-Cl KYNA, 7-chlorokynurenic acid]
- IC50 ([1]; in the presence of B6B21 (40 μg/ml), read-out: IC50, inhibition of [3H]TCP binding): 60 µM
- IC50 [2]: 6 µM

Compound: N[C@H](CCCP(=O)(O)O)C(=O)O [D-AP5, D-(−)-2-amino-5-phosphonovaleric acid]
- IC50 ([3]; read-out: IC50, inhibition of [3H]TCP binding, in the presence of 50 μM glutamate): > 100 µM
- IC50 [2]: 1.4 µM

Compound: N[C@@H](CCC(=O)O)C(=O)O [glutamate]
- concentration giving maximal stimulation of specific [3H]TCP binding [3]: > 10 µM
- specific [3H]TCP binding ([3]; maximally stimulating concentration, non-equilibrium 1 h, 25° C., control 63): 132 fmol/mg of protein

- Bmax of [3H]glycine binding [4]: 12.9 pmol/mg of protein
- ability to abolish the inhibitory effect of D-AP5 on [3H]TCP binding ([1]; 50 μM glycine or 40 μg/ml B6B21): Neither glycine nor B6B21 could abolish
- specific [3H]TCP binding ([1]; added to maximally stimulating glutamate): 310 fmol/mg of protein
- specific [3H]TCP binding ([1]; in the absence of added glutamate, glycine 50 μM, B6B21 25 μM): 155 fmol/mg of protein
Compound: NCC(=O)O [glycine]
- potentiation of the glutamate effect on [3H]TCP binding ([1]; co-addition at concentrations giving maximal effects): potentiated the glutamate effect additively

Compound: threonine-proline-proline-threonine [NT-13]
- learning in the Morris Water Maze (learning [5]): statistically significant increase in learning
- learning in the trace eyeblink paradigm (learning [6]): statistically significant increase in learning
- [3H]MK-801 binding, % of control (NMDA receptor complex): 130%
